Reference: US20250171437A1 (Agios Pharmaceuticals,Inc., priority 2022, published 2025)

Target: T1, human PAH with the R408W mutation (A375 R408W cells) (Homo sapiens, UniProt P00439, R408W)
T1 construct: expressed in transfected cells
T1 sequence (P00439 1-452 R408W): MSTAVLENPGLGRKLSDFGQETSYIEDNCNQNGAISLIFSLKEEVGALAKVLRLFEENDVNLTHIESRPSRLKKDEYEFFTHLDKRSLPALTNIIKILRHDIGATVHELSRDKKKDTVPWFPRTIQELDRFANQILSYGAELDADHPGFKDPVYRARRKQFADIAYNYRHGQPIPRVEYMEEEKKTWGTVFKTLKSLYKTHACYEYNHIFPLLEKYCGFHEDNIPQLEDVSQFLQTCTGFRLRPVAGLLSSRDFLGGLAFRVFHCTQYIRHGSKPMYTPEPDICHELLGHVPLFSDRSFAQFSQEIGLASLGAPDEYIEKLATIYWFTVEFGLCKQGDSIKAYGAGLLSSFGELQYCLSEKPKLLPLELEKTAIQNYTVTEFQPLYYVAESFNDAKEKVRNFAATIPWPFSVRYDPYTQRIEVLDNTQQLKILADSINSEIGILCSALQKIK
Test: Cell Based Phenylalanine Flux Assay
Conditions: A375 R408W cells; 24 hrs with compound, then 20 μM sepiapterin and 800 μM 13C9,15N-Phenylalanine for 4 hours; 13C-Tyrosine by LC-MS; average where tested multiple times
Procedure, shortened: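 Phenylalanine-to-tyrosine flux is measured in A375 cells carrying stable human R408W PAH. After 24 h compound exposure, 13C9,15N-Phe (800 μM) with sepiapterin (20 μM) is supplied for 4 h and media 13C-Tyr is read by LC-MS; AC50s are binned.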

Q: Which AC50 does the source give for `O=C(c1ocnc1C(F)F)N1CCc2[nH]cnc2[C@H]1c1nc2cc(F)c(F)cc2o1` [Example 295, (S)-(4-(5,6-difluorobenzo[d]oxazol-2-yl)-6,7-dihydro-1H-imidazo[4,5-c]pyridin-5(4H)-yl)(4-(difluoromethyl)oxazol-5-yl)methanone] here?
A: 0.5 to 1 µM

Q: `O=C(c1nnc(-c2cnccn2)o1)N1CCc2[nH]cnc2[C@H]1c1nc2cc(F)ccc2o1` [Example 628, (S)-(4-(5-fluorobenzo[d]oxazol-2-yl)-6,7-dihydro-1H-imidazo[4,5-c]pyridin-5(4H)-yl)(5-(pyrazin-2-yl)-1,3,4-oxadiazol-2-yl)methanone] was tested. Which AC50 did it give?
A: 1 to 5 µM

Q: For `O=C(c1ocnc1C(F)F)N1CCc2[nH]cnc2[C@@H]1c1nc2c(Br)cccc2o1` [Example 434, (R)-(4-(4-bromobenzo[d]oxazol-2-yl)-6,7-dihydro-1H-imidazo[4,5-c]pyridin-5(4H)-yl)(4-(difluoromethyl)oxazol-5-yl)methanone], which AC50 is on record?
A: ≤ 0.5 µM

Q: `Cc1ccc2c(C(=O)N3CCc4[nH]cnc4[C@@H]3c3nc4cccc(F)c4o3)cnn2c1` [Example 324, (R)-(4-(7-fluorobenzo[d]oxazol-2-yl)-6,7-dihydro-1H-imidazo[4,5-c]pyridin-5(4H)-yl)(6-methylpyrazolo[1,5-a]pyridin-3-yl)methanone] was tested. Which AC50 did it give?
A: 1 to 5 µM

Q: For `Cc1cc(F)cc2nc([C@H]3c4nc[nH]c4CCN3C(=O)c3ocnc3C(F)F)oc12` [Example 658, (R)-(4-(difluoromethyl)oxazol-5-yl)(4-(5-fluoro-7-methylbenzo[d]oxazol-2-yl)-6,7-dihydro-1H-imidazo[4,5-c]pyridin-5(4H)-yl)methanone], which AC50 is on record?
A: ≤ 0.5 µM

Q: For `O=C(c1cnc(-c2ccccn2)o1)N1CCc2[nH]cnc2[C@H]1c1nc2ccc(Br)cc2o1` [Example 7, (S)-(4-(6-bromobenzo[d]oxazol-2-yl)-6,7-dihydro-1H-imidazo[4,5-c]pyridin-5(4H)-yl)(2-(pyridin-2-yl)oxazol-5-yl)methanone], which AC50 is on record?
A: 0.5 to 1 µM

Q: `Cc1c(F)ccc2oc([C@@H]3c4nc[nH]c4CCN3C(=O)c3oc(C(C)(C)O)nc3C(F)F)nc12` [Example 719, (S)-(4-(difluoromethyl)-2-(2-hydroxypropan-2-yl)oxazol-5-yl)(4-(5-fluoro-4-methylbenzo[d]oxazol-2-yl)-6,7-dihydro-1H-imidazo[4,5-c]pyridin-5(4H)-yl)methanone] was tested. Which AC50 did it give?
A: ≤ 0.5 µM

Q: With `Cn1ccc(-c2nc(C(F)F)c(C(=O)N3CCc4[nH]cnc4[C@@H]3c3nc4cccc(F)c4o3)o2)n1` [Example 592, (R)-(4-(difluoromethyl)-2-(1-methyl-1H-pyrazol-3-yl)oxazol-5-yl)(4-(7-fluorobenzo[d]oxazol-2-yl)-6,7-dihydro-1H-imidazo[4,5-c]pyridin-5(4H)-yl)methanone] as the compound, how does the AC50 read?
A: 0.5 to 1 µM

Q: For `O=C(c1nnc(-c2ccccn2)o1)N1Cc2[nH]cnc2[C@H]1c1nc2ccccc2o1` [Example 937, (S)-(4-(benzo[d]oxazol-2-yl)-4,6-dihydropyrrolo[3,4-d]imidazol-5(1H)-yl)(5-(pyridin-2-yl)-1,3,4-oxadiazol-2-yl)methanone], which AC50 is on record?
A: 1 to 5 µM

Q: For `O=C(c1oc(C2(O)CCC2)nc1C(F)F)N1CCc2[nH]cnc2[C@@H]1c1nc2cc(F)ccc2o1` [Example 690, (R)-(4-(difluoromethyl)-2-(1-hydroxycyclobutyl)oxazol-5-yl)(4-(5-fluorobenzo[d]oxazol-2-yl)-6,7-dihydro-1H-imidazo[4,5-c]pyridin-5(4H)-yl)methanone], which AC50 is on record?
A: 1 to 5 µM

Q: Which AC50 does the source give for `Cc1nc([C@@H](C)O)oc1C(=O)N1CCc2[nH]cnc2[C@H]1c1nc2c(F)cccc2o1` [Example 210, ((S)-4-(4-fluorobenzo[d]oxazol-2-yl)-6,7-dihydro-1H-imidazo[4,5-c]pyridin-5(4H)-yl)(2-((R)-1-hydroxyethyl)-4-methyloxazol-5-yl)methanone] here?
A: 0.5 to 1 µM

Q: With `Cc1ccc2c(C(=O)N3CCc4[nH]cnc4[C@H]3c3nc4c(F)cccc4o3)cnn2c1` [Example 537, (S)-(4-(4-fluorobenzo[d]oxazol-2-yl)-6,7-dihydro-1H-imidazo[4,5-c]pyridin-5(4H)-yl)(6-methylpyrazolo[1,5-a]pyridin-3-yl)methanone] as the compound, how does the AC50 read?
A: ≤ 0.5 µM

Q: For `Cc1cccc2oc([C@@H]3c4nc[nH]c4CCN3C(=O)c3oc(C(C)(C)O)nc3C(F)F)nc12` [Example 361, (S)-(4-(difluoromethyl)-2-(2-hydroxypropan-2-yl)oxazol-5-yl)(4-(4-methylbenzo[d]oxazol-2-yl)-6,7-dihydro-1H-imidazo[4,5-c]pyridin-5(4H)-yl)methanone], which AC50 is on record?
A: ≤ 0.5 µM

Q: Which AC50 does the source give for `Cn1nc(C(F)F)cc1C(=O)N1CCc2[nH]cnc2[C@@H]1c1nc2ccccc2o1` [Example 732, (R)-(4-(benzo[d]oxazol-2-yl)-6,7-dihydro-1H-imidazo[4,5-c]pyridin-5(4H)-yl)(3-(difluoromethyl)-1-methyl-1H-pyrazol-5-yl)methanone] here?
A: ≥ 5 µM

Q: With `Cc1cccc2nc([C@H]3c4nc[nH]c4CCN3C(=O)c3nnc(-c4cnn(C)c4)o3)oc12` [Example 566, (R)-(5-(1-methyl-1H-pyrazol-4-yl)-1,3,4-oxadiazol-2-yl)(4-(7-methylbenzo[d]oxazol-2-yl)-6,7-dihydro-1H-imidazo[4,5-c]pyridin-5(4H)-yl)methanone] as the compound, how does the AC50 read?
A: 1 to 5 µM

Q: Which AC50 does the source give for `COc1cc(F)c2oc([C@H]3c4nc[nH]c4CCN3C(=O)c3ocnc3C(F)F)nc2c1` [Example 664, (R)-(4-(difluoromethyl)oxazol-5-yl)(4-(7-fluoro-5-methoxybenzo[d]oxazol-2-yl)-6,7-dihydro-1H-imidazo[4,5-c]pyridin-5(4H)-yl)methanone] here?
A: ≤ 0.5 µM

Q: With `Cc1ccc2oc([C@H]3c4nc[nH]c4CCN3C(=O)c3oc(-c4cnn(C)c4)nc3C(F)F)nc2c1` [Example 772, (R)-(4-(difluoromethyl)-2-(1-methyl-1H-pyrazol-4-yl)oxazol-5-yl)(4-(5-methylbenzo[d]oxazol-2-yl)-6,7-dihydro-1H-imidazo[4,5-c]pyridin-5(4H)-yl)methanone] as the compound, how does the AC50 read?
A: 0.5 to 1 µM

Q: How did the AC50 turn out when `Cc1ccc2nc([C@@H]3c4nc[nH]c4CCN3C(=O)c3oc(C(C)(C)O)nc3Br)oc2c1` [Example 439, (S)-(4-bromo-2-(2-hydroxypropan-2-yl)oxazol-5-yl)(4-(6-methylbenzo[d]oxazol-2-yl)-6,7-dihydro-1H-imidazo[4,5-c]pyridin-5(4H)-yl)methanone] was run?
A: ≤ 0.5 µM

Q: With `O=C(c1cnco1)N1CCc2[nH]cnc2[C@@H]1c1nc2ccccc2o1` [Example 548, (R)-(4-(benzo[d]oxazol-2-yl)-6,7-dihydro-1H-imidazo[4,5-c]pyridin-5(4H)-yl)(oxazol-5-yl)methanone] as the compound, how does the AC50 read?
A: 1 to 5 µM

Q: With `Cc1ccc2oc([C@@H]3c4nc[nH]c4CCN3C(=O)c3nnc(-c4cc[nH]n4)o3)nc2c1` [Example 355, (S)-(5-(1H-pyrazol-3-yl)-1,3,4-oxadiazol-2-yl)(4-(5-methylbenzo[d]oxazol-2-yl)-6,7-dihydro-1H-imidazo[4,5-c]pyridin-5(4H)-yl)methanone] as the compound, how does the AC50 read?
A: 0.5 to 1 µM

Q: How did the AC50 turn out when `O=C(CCc1nccs1)N1CCc2[nH]cnc2[C@H]1c1nc2cccc(F)c2o1` [Example 385, 1-[(4S)-4-(7-fluoro-1,3-benzoxazol-2-yl)-1,4,6,7-tetrahydroimidazo[4,5-c]pyridin-5-yl]-3-thiazol-2-yl-propan-1-one] was run?
A: ≤ 0.5 µM

Q: `Cc1ncoc1C(=O)N1CCc2[nH]cnc2[C@@H]1c1nc2cccc(F)c2o1` [Example 570, (R)-(4-(7-fluorobenzo[d]oxazol-2-yl)-6,7-dihydro-1H-imidazo[4,5-c]pyridin-5(4H)-yl)(4-methyloxazol-5-yl)methanone] was tested. Which AC50 did it give?
A: 1 to 5 µM

Same assay, conditions: A375 cells expressing R408W PAH; 24 hrs with compound, then 20 μM sepiapterin and 800 μM 13C9,15N-Phenylalanine for 4 hours; 13C-Tyrosine by LC-MS; average where tested multiple times

Q: How did the AC50 turn out when `O=C(c1nnc(CCN2CC(F)C2)o1)N1CCc2[nH]cnc2C1c1nc2cc(F)ccc2o1` (centres unmarked) was run?
A: ≥ 5 µM

Q: `CNC(C)(C)c1nc(C)c(C(=O)N2CCc3[nH]cnc3C2c2nc3cc(F)ccc3o2)o1` (centres unmarked) was tested. Which AC50 did it give?
A: 1 to 5 µM

Q: With `O=C(CCc1cnco1)N1CCc2[nH]cnc2C1c1nc2cc(F)ccc2o1` (centres unmarked) as the compound, how does the AC50 read?
A: 1 to 5 µM

Q: With `Cn1ncc(C(=O)N2CCc3[nH]cnc3C2c2nc3cc(F)ccc3o2)c1C(F)F` (centres unmarked) as the compound, how does the AC50 read?
A: ≥ 5 µM

Q: For `O=C(c1cnn2cc(CN3CCOCC3)ccc12)N1CCc2[nH]cnc2C1c1nc2cc(F)ccc2o1` (centres unmarked), which AC50 is on record?
A: 1 to 5 µM

Q: `Cc1nnc(C(=O)N2CCc3[nH]cnc3C2c2nc3cc(F)ccc3o2)o1` (centres unmarked) was tested. Which AC50 did it give?
A: 1 to 5 µM

Q: Which AC50 does the source give for `CC(C)(O)c1nc(C(F)F)c(C(=O)N2CC3(CC3)c3[nH]cnc3C2c2nc3cc(F)ccc3o2)o1` (centres unmarked) here?
A: 1 to 5 µM

Q: `CN(C)Cc1ccc2c(C(=O)N3CCc4[nH]cnc4C3c3nc4cc(F)ccc4o3)cnn2c1` (centres unmarked) was tested. Which AC50 did it give?
A: 1 to 5 µM

Q: How did the AC50 turn out when `Cc1nc(C(C)(C)O)oc1C(=O)N1CCc2[nH]cnc2C1c1nc2ccc(F)cc2o1` (centres unmarked) was run?
A: ≥ 5 µM

Q: Which AC50 does the source give for `COCc1ccc2c(C(=O)N3CCc4[nH]cnc4C3c3nc4ccc(C)cc4o3)cnn2c1` (centres unmarked) here?
A: 1 to 5 µM

Q: Which AC50 does the source give for `O=C(c1cn[nH]c1)N1CCc2[nH]cnc2[C@H]1c1nc2cc(F)ccc2o1` (single isomer, unassigned) here?
A: ≥ 5 µM

Q: `COCCNc1ccc2c(C(=O)N3CCc4[nH]cnc4C3c3nc4cc(F)ccc4o3)cnn2c1` (centres unmarked) was tested. Which AC50 did it give?
A: ≥ 5 µM

Q: Which AC50 does the source give for `Cc1ccc2oc(C3c4nc[nH]c4CCN3C(=O)c3cnn4cc(CN(C)C)ccc34)nc2c1` (centres unmarked) here?
A: 1 to 5 µM
